Test results reported in paper PMC7871391, “The novel TRPA1 antagonist BI01305834 inhibits ovalbumin-induced bronchoconstriction in guinea pigs” (Respiratory Research, 2021).
pIC50: −log10 of the molar value.

Assays:
[1] = test system: guinea-pig lung slices; assay: TRPA1 agonism in lung slices (airway narrowing, histamine release); details: data not shown
Experimental: Lung slices were used for OA and histamine induced airway narrowing studies. In order to do this, lung slices were placed in 1 ml medium and fixed with a plastic ring. After 30 min pre-treatment with the TRPA1 antagonist BI01305834 (0.01, 0.1, 1 or 10 µM) or the vehicle (10% cyclodextrin) OA (10^–5-10^2 µg.ml^−1) or histamine (10^–8-10^–2 M) dose–response curves were established. Using a microscope (Eclipse, TS100; Nikon) time-lapse images (1 frame per 2 s) of the lung slices were captured. The airway luminal area was quantified using image acquisition software (NIS-elements; Nikon) and expressed as percentage of basal area, as described previously.
Lung slices were used for OA-induced histamine determinations, with separate slices for each condition individually. BI01305834 and vehicle pre-treated lung slices were challenged with OA (10 µg.ml^−1) for 5 min. […] Histamine levels of original supernatant and homogenized lung slice supernatant were assessed by liquid chromatography in combination with isotope dilution tandem mass spectrometry (LC–MS/MS). […] Inter-assay imprecision (n = 20 days) was < 2.9% at three different levels (60, 986, 3873 nM, respectively) and limit of quantification was 3.0 nM. Histamine release was calculated as percentage of total histamine present in both supernatant and slice. […]

[2] = test system: TRPA1; set-up: method as in PMID 17686976, PMID 18954467; details: TRPA1-mediated calcium flux ref 46, 47; cited from earlier work

| SMILES | induction of airway narrowing [1] | induction of histamine release [1] | pIC50 [2] |
| --- | --- | --- | --- |
| C=CCN=C=S [AITC, allyl isothiocyanate] | unable to induce | unable to induce |  |
| CC(C)c1ccc(NC(=O)Cn2cnc3c2c(=O)n(C)c(=O)n3C)cc1 [HC030031] |  |  | 5.12 to 5.21 |
